One data set has as its system rat. The data set is described as follows: Orbital tightening (OT) after heptanol corneal abrasion injury, pre-clinical model of PRK. It is filed as in vivo. The conditions noted are these: 24 hours post-injury; topical eye drops; FIG. 6B; abrasion increases OT scores. Here is the method: A unilateral corneal injury was performed using topical application of heptanol. FIG. 3 is a diagram of a corneal abrasion method using topical application 310 of heptanol performed on an anesthetized rat. A local anesthetic was applied to the eye 320 via ophthalmic drops. A small metal ring 330 was then secured to the corneal surface with petroleum jelly. Heptanol (10 μL) 340 was placed inside the ring for 90 seconds, the heptanol was removed from inside the ring with a cotton swab and the eye is rinsed profusely with saline. The loose corneal epithelium was then removed with a cotton applicator 350. FIG. 4 is a graph representing of acute hyperalgesia after corneal abrasion injury, illustrating that this method induces photophobia as well as hyperalgesia to ocular application of menthol. This method produces abrasions of relatively uniform size and depth, in contrast to other mechanical abrasion methods.
In various embodiments, topical (ophthalmic) application of the compositions described herein can reduce or eliminate the hyperalgesia produced by corneal abrasion in a pre-clinical model of PRK. […]
Doses of trans-resveratrol up to 4% (corresponding to up to […] in 10 μL) were tested. […] Topical application is efficacious, because resveratrol is very lipophilic and should be readily taken up into the tear film that covers the surface of the eye. […]

The subject of a further data set is hindpaw incision. Particulars: topical, cited from earlier work.
The subject of data set [1] is cultured trigeminal ganglion neurons. Particulars: caused by nerve growth factor exposure; cited from earlier work.
The test system of a further data set is sodium channels. Particulars: in vivo; cited from earlier work.
For data set [2] the following is noted: cited from earlier work.
The subject of a further data set is corneal epithelium. It is filed as in vivo, rat. Particulars: capsaicin application, FIG. 5C. From the text:
Deeper wounds may remove the basement membrane and prevent reinnervation (at least in some strains of mice).

Structures are written as SMILES.

For the compound `Oc1ccc(C=Cc2cc(O)cc(O)c2)cc1` (racemic) [resveratrol], in the data set with rat, the “orbital tightening (OT) scores” value is recorded as “dose-dependent trend for resveratrol to reverse this”. Moreover, the hyperalgesic priming entry with hindpaw incision (14-days after incision) was “prevents the full development”. Further, the acute hyperalgesia result with hindpaw incision (following hindpaw incision) is “attenuates”. Moreover, the hyperexcitability of neurons entry in data set [1] is “reduce hyperexcitability”.

`NC1=N[C@H](O)[C@H]2[C@H]3O[C@]4(O)O[C@@H]([C@@H](O)[C@@]2(N1)[C@@H]4O)[C@]3(O)CO` [TTX, tetrodotoxin]: the photophobia result with sodium channels is listed as “can reduce the photophobia”. Besides, in data set [2], the “solubility in tear film” value is given as “not soluble in tear film”.

As to `COc1cc(CNC(=O)CCCC/C=C/C(C)C)ccc1O` [capsaicin], the “overall epithelial structure (H&E stain)” value in the data set on corneal epithelium is on record as “does not alter overall epithelial structure”.

The values above are taken from patent publication US20210046018A1 (priority 2019, published 2021).
